The values below come from ChEMBL document CHEMBL4402596, “Pyridine-Embedded Phenothiazinium Dyes as Lysosome-Targeted Photosensitizers for Highly Efficient Photodynamic Antitumor Therapy” (J Med Chem, 2020).

The test system of data set [1] is HT-29. Briefly: Cytotoxicity against human HT-29 cells assessed as reduction in cell viability preincubated for 1 hr followed by light irradiation at 3.2 J/cm2 for 10 to 180 secs and measured after 24 hrs by MTT assay. The data set is classed as functional, cell-based. Background: Tetrazolium assays rely on reduction of a dye to a coloured formazan, in cell work by metabolically active cells.

Data set [2] deals with A549. Briefly: Cytotoxicity against human A549 cells assessed as reduction in cell viability incubated for 1 hr followed by light irradiation at 3.2 J/cm2 for 30 sec and measured after 24 hrs by MTT assay. The class given is functional, cell-based. The following applies: A549, light or radiation study.
Data set [3] is described as follows: Drug localization in lysosome of human HT-29 cells at 0.5 uM measured after 1 hr in dark by Lyso-tracker based confocal laser scanning microscopy. The data set is classed as ADME, subcellular. The note with it: ht-29, 1 h.
Data set [4] in a line: Induction of singlet oxygen generation in EtOH assessed as singlet oxygen quantum yield irradiated with 12.8 J light for 2 mins by DPBF-based assay. The class given is functional.
Data set [5] relates to HT-29. Briefly: Cytotoxicity against human HT-29 cells assessed as reduction in cell viability preincubated for 1 hr followed by light irradiation at 3.2 J/cm2 for 30 sec and measured after 24 hrs by MTT assay. The data set is classed as functional, cell-based. The note with it: HT-29, light or radiation study.
The test system of data set [6] is HT-29. In words: Induction of ROS generation in human HT-29 cells at 0.5 uM incubated for 0.5 hrs followed by DCFH-DA addition for 0.5 hrs then irradiated with light for 30 sec and measured after 15 mins by flow cytometry. The data set is classed as functional, cell-based.
The subject of data set [7] is A549. In words: Ratio of IC50 for cytotoxicity against human A549 cells in dark to IC50 for cytotoxicity against human A549 cells in light at 3.2J/cm2.
Data set [8] deals with MCF7. Briefly: Cytotoxicity against human MCF7 cells assessed as reduction in cell viability incubated for 24 hrs in dark by MTT assay. The data set is classed as cell-based. The following applies: MCF7, 24 h.
Data set [9] has as its system A549. Briefly: Cytotoxicity against human A549 cells assessed as reduction in cell viability incubated for 24 hrs in dark by MTT assay. The class given is cell-based. The following applies: A549, 24 h.
Data set [10] has as its system HT-29. In words: Ratio of IC50 for cytotoxicity against human HT-29 cells in dark to IC50 for cytotoxicity against human HT-29 cells in light at 3.2J/cm2.
The subject of data set [11] is MCF7. In words: Ratio of IC50 for cytotoxicity against human MCF7 cells in dark to IC50 for cytotoxicity against human MCF7 cells in light at 3.2J/cm2.
Data set [12] can be described thus: Photostability of compound assessed as decrease in rate of photo decomposition at 5 uM irradiated with LED light (630 nm, 106 mW cm'-2) upto 12 mins by UV spectrophotometry.
Data set [13] concerns HT-29. Briefly: Cytotoxicity against human HT-29 cells assessed as reduction in cell viability incubated for 24 hrs in dark by MTT assay. The class given is cell-based. The note with it: HT-29, 24 h.
Data set [14] relates to MCF7. Briefly: Cytotoxicity against human MCF7 cells assessed as reduction in cell viability incubated for 1 hr followed by light irradiation for 30 sec at 3.2 J/cm2 and measured after 24 hrs by MTT assay. The class given is functional, cell-based. The following applies: MCF7, light or radiation study.
The nature of data set [15]: Drug uptake in nucleus of human HT-29 cells at 0.5 uM incubated for 5 hrs by Hoechst 33342 staining based fluorescence microscopy. The class given is ADME, cell-based. The note with it: ht-29, 5 h.
The nature of data set [16]: Drug localization in lysosome of human HT-29 cells at 0.5 uM measured after 1 hr by LAMP1-GFP based confocal laser scanning microscopy. The class given is ADME, subcellular. The following applies: ht-29, 1 h.
For data set [17], the system named is HT-29. In words: Potency index, ratio of IC50 of methylene blue to IC50 of compound for cytotoxicity against human HT-29 cells assessed as reduction in cell viability incubated for 1 hr followed by light irradiation at 3.2 J/cm2 for 30 sec and measured after 24 hrs by MTT assay. The class given is functional.
Data set [18] can be described thus: Drug localization in mitochondria of human WI38 cells at 0.5 uM measured after 1 hr by Mito-GFP based confocal laser scanning microscopy. The class given is ADME. The note with it: wi-38, 1 h.
Data set [19] can be described thus: MRT (0 to infinity) in Sprague-Dawley rat at 2 mg/kg, iv measured upto 24 hrs by fluorescence based assay. The class given is ADME, organism-based. The following applies: in vivo.
Data set [20] can be described thus: Drug localization in mitochondria of human Ht-29 cells at 0.5 uM measured after 1 hr by Mito-GFP based confocal laser scanning microscopy. The data set is classed as ADME. The following applies: ht-29, 1 h.
The test system of data set [21] is HT-29. Briefly: Antitumor activity against human HT-29 cells xenografted in BALB/c mouse assessed as reduction in tumor volume at 2 mg/kg, iv after 2 hrs irradiated with light and measured on day 24. The class given is functional, organism-based. On the technique in general: A xenograft is tissue or cells of one species grown in another, often human tumour cells in immunodeficient mice.

Data set [22] is described as follows: AUC (0 to t) in Sprague-Dawley rat at 2 mg/kg, iv measured upto 24 hrs by fluorescence based assay. The class given is ADME, organism-based. The following applies: in vivo.
Data set [23] in a line: Toxicity in BALB/c mouse xenografted with human HT-29 cells assessed as damage on heart tissue at 2 mg/kg, iv after 2 hrs irradiated with light and measured on day 24. The class given is organism-based. The following applies: in vivo.
A short description of data set [24]: Clearance in Sprague-Dawley rat at 2 mg/kg, iv measured upto 24 hrs by fluorescence based assay. The data set is classed as ADME, organism-based. The note with it: in vivo.
Data set [25] can be described thus: Toxicity in BALB/c mouse xenografted with human HT-29 cells assessed as damage on liver at 2 mg/kg, iv after 2 hrs irradiated with light and measured on day 24. The data set is classed as organism-based. The following applies: in vivo.
Data set [26] is described as follows: Toxicity in BALB/c mouse xenografted with human HT-29 cells assessed as damage in spleen at 2 mg/kg, iv after 2 hrs irradiated with light and measured on day 24. The data set is classed as organism-based. The following applies: in vivo.
Data set [27] can be described thus: Toxicity in BALB/c mouse xenografted with human HT-29 cells assessed as damage on lung at 2 mg/kg, iv after 2 hrs irradiated with light and measured on day 24. The following applies: in vivo. The data set is classed as organism-based.
The nature of data set [28]: Half life in Sprague-Dawley rat at 2 mg/kg, iv measured upto 24 hrs by fluorescence based assay. The class given is ADME, organism-based. The following applies: in vivo.
For data set [29], the system named is WI-38. Briefly: Cytotoxicity against human WI38 cells assessed as reduction in cell viability incubated for 24 hrs in dark by MTT assay. The class given is cell-based. The note with it: WI-38, 24 h.
Data set [30] in a line: Toxicity in BALB/c mouse xenografted with human HT-29 cells assessed as damage in kidney at 2 mg/kg, iv after 2 hrs irradiated with light and measured on day 24. The data set is classed as organism-based. The note with it: in vivo.
Data set [31] has as its system HT-29. In words: Antitumor activity against human HT-29 cells xenografted in BALB/c mouse assessed as reduction in tumor volume at 2 mg/kg, iv after 2 hrs irradiated with light and measured on day 5. The class given is functional, organism-based.
Data set [32] in a line: Cmax in Sprague-Dawley rat at 2 mg/kg, iv measured upto 24 hrs by fluorescence based assay. The class given is ADME, organism-based. The arrangement: dose 2 mg/kg, route intravenous. The note with it: in vivo.
Data set [33] can be described thus: AUC (0 to infinity) in Sprague-Dawley rat at 2 mg/kg, iv measured upto 24 hrs by fluorescence based assay. The class given is ADME, organism-based. The arrangement: dose 2 mg/kg, route intravenous, time infinity. The note with it: in vivo.
Data set [34] relates to HT-29. In words: Antitumor activity against human HT-29 cells xenografted in BALB/c mouse assessed as reduction in tumor growth at 2 mg/kg, iv after 2 hrs irradiated with light and measured on day 5. The class given is functional, organism-based.
Data set [35] deals with HT-29. Briefly: Induction of morphological changes in nucleus of human HT-29 cells at 0.5 uM incubated in dark for 1 hr followed by irradiated with LED light for 30 sec and measured after 18 hrs by Hoechst 33342 staining based fluorescence microscopy. The data set is classed as functional, cell-based.
Data set [36] can be described thus: Drug localization in lysosome of human WI38 cells at 0.5 uM measured after 1 hr by LAMP1-GFP based confocal laser scanning microscopy. The note with it: wi-38, 1 h. The class given is ADME, subcellular.
For data set [37], the system named is HT-29. In words: Induction of morphological changes in nucleus of human HT-29 cells at 0.5 uM incubated for 18 hrs in dark by Hoechst 33342 staining based fluorescence microscopy. The data set is classed as cell-based. The note with it: ht-29, 18 h.

Calls of active or inactive are those of the source. The calls are words filed in the database; no cut-off is given here.

In the case of `CCN(CC)c1ccc2nc3c(cc(N)c4nc(C)ccc43)[s+]c2c1.[Cl-]`, the outcome in data set [1] and in data set [6] was Active. Further, the IC50 amounted to 1.8 µM in data set [2]; 0.21 µM in data set [5]; 1.1 µM in data set [8]; 6.5 µM in [9]; 4.6 µM in data set [13]; 0.5 µM in data set [14]. For the same compound, the Drug uptake entry in data set [3] is recorded as “Active”. The Activity in data set [4] is 0.08 to 0.14. In addition, the “Ratio IC50” value in data set [7] came out at 3.6; in [10] it was 21.9; in [11], 2.2. Besides, in [12], the Stability result is listed as “Stable”.

Turning to `CCCCCCCNc1cc2[s+]c3cc(N(CC)CC)ccc3nc2c2ccc(C)nc12.[Cl-]`, the outcome in data set [1] and in [6] was Active. Further, the IC50 is 3.7 µM in [2]; 1.05 µM in data set [5]; 14.4 µM in data set [8]; 17.1 µM in data set [9]; 8.89 µM in data set [13]; 3.8 µM in [14]. Besides, the Drug uptake entry in data set [3] is recorded as “Active”. Further, the Activity in [4] fell in the range of 0.08 to 0.14. Moreover, the “Ratio IC50” value in data set [7] worked out at 4.6; in data set [10], 8.47; in [11] it was 3.8. Also, in data set [12], the Stability result is on record as “Stable”.

As to `CN(C)c1ccc2nc3ccc(N(C)C)cc3[s+]c2c1.[Cl-]` [METHYLENE BLUE ANHYDROUS], the figures for the IC50 in data set [5] and in [13] were 9.2 µM and more than 10 µM, respectively. Also, the Drug uptake entry in data set [15] was “Active”.

Take `CCCNc1cc2[s+]c3cc(N(CC)CC)ccc3nc2c2ccc(C)nc12.[Cl-]`: the Drug uptake result in [16] is listed as “Active”; in data set [18] it was “Not Active”; in data set [3], “Active”; in data set [20] it was “Not Active”; in data set [36], “Active”; in data set [15] it was “Not Active”. In addition, the result in data set [1], in data set [21], in data set [6], in [31], in [34] and in data set [35] was Active. Also, the “Ratio IC50” value is on record as 235 in [17], 9.1 in [7], 53.8 in data set [10] and 5.1 in [11]. For the same compound, the MRT inf in data set [19] is 12.4 h. For the same compound, the IC50 is 0.34 µM in data set [2]; 0.039 µM in data set [5]; 1.9 µM in data set [8]; 3.1 µM in data set [9]; more than 10 µM in data set [29]; 2.1 µM in [13]. Further, the IC50 in data set [14] is 0.37 µM. In addition, the Activity in data set [4] was 0.08 to 0.14; in data set [23] it was “Non-Toxic”; in data set [25], “Non-Toxic”; in [26] it was “Non-Toxic”; in [27] it was “Non-Toxic”; in data set [30], “Non-Toxic”. Also, the Activity entry in [37] is on record as “Non-Toxic”. Also, the AUCt in data set [22] came to 3.78 mg/h/L. Besides, the clearance in data set [24] was 7.33 mL/min/kg. For the same compound, the half-life in data set [28] was 7.81 h. Besides, the Stability entry in data set [12] is given as “Stable”. The peak level in data set [32] (Cmax) was 2180 ng/mL. Also, in data set [33], the AUC stood at 4550 ng·h/mL.

One may read the IC50 as the midpoint of a concentration-inhibition curve. By MRT inf is commonly meant a mean duration of stay, worked out from the concentration-time curve. One may read the clearance as the volume of plasma or blood freed of the substance per unit of time. As usually defined, the half-life is how long it takes for the measured level to halve. Read a high half-life as slow loss. A word on the Cmax: it is the maximum level reached in the sampled fluid or tissue. One may read the AUC as the area under the concentration-time curve, a measure of exposure.
